# Measured values published in patent US7713963B2, “Acylated indanyl amines and their use as pharmaceuticals” (sanofi-aventis Deutschland GmbH, priority 2001, dated 2010).
# Columns and labels:
# ApoE deficient mice [1] = test: Inhibition of neointima formation and atherogenesis (femoral artery cuff) in ApoE deficient mice; assay type: in vivo; conditions: 10 mg/kg/d in chow, 3 days before to 14 days after cuff surgery, versus placebo
# Source text: (§1) Animals and Treatment (Experiments A-C)
# (§2) ApoE and eNOS deficient mice (C57BL/6J background, Jackson Laboratory, Bar Harbor, Me.) were used. All animals were 10-12 weeks of age and weighed 22 to 28 g. Three days before surgery mice were divided into 4 groups (apoE control, n=10-12; apoE with test compounds, n=10-12; eNOS control, n=10-12; eNOS with test compounds, n=10-12) and received either a standard rodent chow (containing 4% fat and 0.001% cholesterol; in the following designated as placebo group) or a standard rodent chow+test compound (10 or 30 mg/kg/d p.o.).
# B Inhibition of Neointima Formation and Atherogenesis (Femoral Artery Cuff)
# After 3 day treatment of ApoE deficient mice with the respective compound, (10 mg/kg/d pressed in chow), animals were anesthetized with an intraperitoneal injection of pentobarbital (60 mg/kg) followed by an intramuscular injection of xylazin (2 mg/kg) and a cuff was placed around the femoral artery as described in Moroi et al. (J. Clin. Invest. 101: 1225-32, 1998). Briefly, the left femoral artery was dissected. […] The aorta were taken for determination of vascular eNOS expressions by quantitative western blotting. […] For each cross section the area of the lumen, the neointima and the media were determined. […] The ratio between the area of the neointima and the area of the media was expressed as the neointima/media ratio.
# eNOS promoter = test: Activation of eNOS transcription (eNOS promoter-luciferase reporter gene assay); assay type: cell-based, human; conditions: Homo sapiens, 18 h, 18 h incubation
# Procedure, shortened: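 Human endothelial cell line stably expressing firefly luciferase under a 3.5 kB eNOS promoter fragment, treated 18 h with compounds (0.5% DMSO final). Luciferase induction relative to solvent gives transcription induction ratio; EC50 read graphically from ratio versus concentration.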
# vascular eNOS expression [2] = test: Vascular eNOS expression (aorta, quantitative western blotting) in femoral artery cuff model; assay type: in vivo; conditions: ApoE deficient mice, 10 mg/kg/d, versus placebo
# Experimental: After 3 day treatment of ApoE deficient mice with the respective compound, (10 mg/kg/d pressed in chow), animals were anesthetized with an intraperitoneal injection of pentobarbital (60 mg/kg) followed by an intramuscular injection of xylazin (2 mg/kg) and a cuff was placed around the femoral artery as described in Moroi et al. (J. Clin. Invest. 101: 1225-32, 1998). Briefly, the left femoral artery was dissected. A non-occlusive 2.0 mm polyethylene cuff made of PE-50 tubing (inner diameter 0.56 mm, outer diameter 0.965 mm, Becton Dickinson, Mountain View, Calif.) was placed around the artery and tied in place with two 7-0 sutures. The right femoral artery was isolated from the surrounding tissues but a cuff was not placed. Treatment with the respective compound was continued for 14 days after surgery. Then the animals were sacrificed. The aorta were taken for determination of vascular eNOS expressions by quantitative western blotting. Both femoral arteries were harvested, fixed in formalin and embedded in paraffin. 20 cross sections (10 μm) were cut from the cuffed portion of the left femoral artery and from the corresponding segment of the right artery. […] For each cross section the area of the lumen, the neointima and the media were determined. […] The ratio between the area of the neointima and the area of the media was expressed as the neointima/media ratio.
# ApoE deficient mice [3] = test: Improvement of coronary function in diseased ApoE deficient mice (isolated working heart); assay type: in vivo; conditions: isolated hearts of ApoE deficient mice, 30 mg/kg/d p.o. for 8 weeks
# Source text: D Improvement of Coronary Function in Diseased ApoE Deficient Mice
# Old Male wild-type C57BL/6J mice (Charles River Wiga GmbH, Sulzfeld), and apoE deficient mice (C57BL/6J background, Jackson Laboratory, Bar Harbor, Me.) 6 month of age and weighing 28 to 36 g were used in the experiments. Mice were divided into 3 groups (C57BL/6, n=8; apoE control, n=8; apoE with respective compound, n=8) and received for 8 weeks either a standard rodent chow (containing 4% fat and 0.001% cholesterol) or a standard rodent chow+respective compound (30 mg/kg/d p.o.).
# Mice were anesthetized with sodium pentobarbitone (100 mg/kg i.p.), and the hearts were rapidly excised and placed into ice-cold perfusion buffer. The aorta was cannulated and connected to a perfusion apparatus (HUGO SACHS ELECTRONICS, Freiburg, Germany) which was started immediately at a constant perfusion pressure of 60 mm Hg. Hearts were perfused in a retrograde fashion with modified Krebs bicarbonate buffer, equilibrated with 95% O2 and 5% CO2 and maintained at 37.5° C.
# A beveled small tube (PE 50) was passed through a pulmonary vein into the left ventricle and pulled through the ventricular wall, anchored in the apex by a fluted end, and connected to a tip-micromanometer (Millar 1.4 French). The left atrium was cannulated through the same pulmonary vein and the heart switched to the working mode with a constant preload pressure of 10 mm Hg and an afterload pressure of 60 mm Hg. Aortic outflow and atrial inflow were continuously measured using ultrasonic flow probes (HSE/Transonic Systems Inc.). Coronary flow was calculated as the difference between atrial flow and aortic flow. All hemodynamic data were digitized at a sampling rate of 1000 Hz and recorded with a PC using specialized software (HEM, Notocord).
# Hearts were allowed to stabilize for 30 min. All functional hemodynamic data were measured during steady state, and during volume- and pressure loading.
# Left ventricular function curves were constructed by varying pre-load pressure. […]
# ApoE deficient mice [4] = test: Anti-hypertensive effect in ApoE knockout mice (tail-cuff blood pressure); assay type: in vivo; conditions: 30 mg/kg/d, 4 months treatment, placebo 115±2 mmHg, p<0.05
# Source text: as §1, §2
# A Anti-Hypertensive Effect in ApoE Knockout Mice
# (§3) Blood-pressure was determined in conscious mice using a computerized tail-cuff system (Visitech Systems, Apex, Nc). After treatment of ApoE deficient mice and eNOS deficient mice with the test compounds the blood pressure was compared to the results obtained with a placebo treatment.
# eNOS deficient mice = test: Blood pressure in eNOS deficient mice (tail-cuff); assay type: in vivo; conditions: similar dosing, 4 weeks treatment
# Source text: as §1, §2, §3
# vascular eNOS expression [5] = test: Vascular eNOS expression (femoral arteries) after chronic treatment; assay type: in vivo; conditions: ApoE deficient mice, 16 weeks treatment
# Experimental: ApoE deficient mice were treated for 16 weeks with the respective compound pressed in chow and finally sacrificed. Aortas were removed from each mouse, fixed in formalin and embedded in paraffin. Plaque formation was measured via lipid lesion formation in the aortas (from aortic arch to diaphragm) and was analyzed by oil red O staining. For quantifying the effect of the respective compound on vascular eNOS expression the femoral arteries were used in this experiment.
smiles,measurement,setting,value
"O=C(NC1Cc2ccccc2C1)c1ccc(F)cc1 [Compound 21, 4-FLUORO-N-(INDAN-2-YL)-BENZAMIDE]",reduction of neo-intima formation (factor),ApoE deficient mice [1],2
same,maximal fold induction,"eNOS promoter; maximum transcription induction ratio (luciferase with compound / solvent alone), read-out: TIR (max)",4.1
same,EC50,"eNOS promoter; Endothelial cell, EC50 of transcription induction ratio, determined graphically, human endothelial cell line, read-out: EC-50",800 nM
same,vascular eNOS expression enhanced by a factor,vascular eNOS expression [2],2.1
same,pre-load dependent coronary flow,ApoE deficient mice [3],improvement
same,incidence of ventricular arrhythmias,ApoE deficient mice [3]; indicator for anti-ischemic efficacy,reduction
same,coronary flow,"ApoE deficient mice [3]; untreated ApoE 3.6, wildtype 4.95 ml/min",5 mL/min
same,blood pressure,ApoE deficient mice [4],92±5 mmHg
same,blood pressure reduction,eNOS deficient mice,No blood pressure reduction
same,vascular eNOS expression up-regulation,vascular eNOS expression [5],1.75 fold
